Marks after values point to notes of the source that are not given here.
Tests used:
Caco2 = Caco2 permeability; assay type: in vitro ADME
[1] = Pharmacokinetics in rats after single po and iv dosing; conditions: for AUC(0-inf): plasma
[2] = Stability in rat liver microsomes; assay type: in vitro ADME
Caco2 permeability = assay type: in vitro ADME; conditions: human, Caco-2
[3] = rats, po, dose normalized to 30 mg/kg

Caco2 permeability (Caco2)	solubility (Solubility)	clearance ([1]; rat, in vivo, iv, 30 mg/kg)	BA ([1]; rats, 30 mg/kg, po)	AUC (0-∞) (dose normalized to 30 mg/kg) [1, 3]	Cmax (dose normalized to 30 mg/kg) [1, 3]	remaining at 0.25 h [2]	Papp (Caco2 permeability)	half-life ([1]; rat, in vivo, iv, 30 mg/kg)	AUC ([1]; rat, in vivo, po, 30 mg/kg)	Cmax ([1]; rat, in vivo, po, 30 mg/kg)	half-life ([1]; rat, in vivo, po, 30 mg/kg)	AUC(0-inf) ([1]; rat, iv, 30 mg/kg)	AUC(0-inf) ([1]; rat, po, 30 mg/kg)	Compound
not detected	less than 5 μM	6.78 L/h/kg	1.9%	74.4^a ng h/m	16.7^a ng/mL	–	–	–	–	–	–	–	–	CCCCN1C(=O)C(CC2CCCCC2)NC(=O)C12CCN(Cc1ccc(Oc3ccccc3)cc1)CC2.Cl (centres unmarked) [Compound 1a]
–	26 µM	0.96 L/h/kg	34.1%	–	–	22%	264 nm/s	11.1 min	10.5 µg·h/mL	7.2 µg/mL	48.4 min	3.09 µg·h/mL	10.5 µg·h/mL	CCCCN1C(=O)[C@H](CC2CCCCC2)NC(=O)C12CCN(Cc1ccc(Oc3ccc(C(=O)O)cc3)cc1)CC2.Cl [Compound 12, 4-(4-{[(3S)-1-butyl-3-(cyclohexylmethyl)-2,5-dioxo-1,4,9-triaza-spiro[5.5]undec-9-yl]methyl}phenoxy)benzoic acid hydrochloride]

Source: publication PMC7553643 (Bioorganic & medicinal chemistry letters, 2009)
